The IC50 is the concentration needed to halve the response being measured.

Where two headings read alike, the source gives them in different places.

Data set [1] deals with U87MG cells subcutaneous tumor. The experiment in a line: Concentration of radioactivity in tumor of labeled compounds (Test Example 4). The class given is in vivo, mouse. Particulars: tail vein, 111In 740 kBq, 64Cu and 90Y 500 kBq. The protocol:
U87MG cells were subcutaneously transplanted at 1×10^7 cells/mouse to the right flank of Balb/cAJcl-nu/nu (CLEA Japan, Inc. or Japan SLC, Inc., 6 to 9 weeks old). After 2 to 3 weeks, the mice were divided into groups each involving 3 individuals per point in time when their tumors became 200 to 500 mm^3. The ^111In-labeled compound (740 kBq) was administered to the tail veins of the mice.
After a given time, the animals were sacrificed to extract their tumors. The weights of the tumors were measured, and the radioactivity was measured using a gamma counter to calculate the concentration of radioactivity in the tumors (% ID/g). In the same way as above, the concentration of radioactivity in the tumors (% ID/g) was calculated for the ^64Cu-labeled compound (500 kBq) and the ^90Y-labeled compound (500 kBq).

The target in the next data set is T1, Integrin αvβ3 (Homo sapiens, UniProt P05106+P06756).
T1 construct: purchased Chemicon International, Inc
The experiment in a line: Integrin αvβ3 binding affinity test. On the procedure: (§1) […] αvβ3 (Chemicon International, Inc.) was immobilized on each well of a 96-well plate (Corning Inc.). Each well was blocked with a 1% Block Ace (DS Pharma Biomedical Co., Ltd) solution and then washed with T-PBS (PBS containing 0.05% Tween 20). Evaluation compound solutions having a 2-fold concentration (10 concentrations of 3.16-fold dilutions from 0.3 μmol/L, buffer (20 mM Tris-HCl pH 7.5, 150 mM NaCl, 1 mM CaCl2, 1 mM MgCl2, and 1 mM MnCl2)) and a 4 μg/mL biotinylated vitronectin solution (vitronectin (Upstate Biotechnology Inc.) was labeled with EZ-Link Sulfo-NHS-Biotinylation Kit (Pierce/Thermo Fisher Scientific Inc.) and then concentration-adjusted) were each added at 50 μL/well, and the plate was shaken at room temperature for 2 hours. After washing with T-PBS, a 0.2 μg/mL avidin peroxidase (Pierce/Thermo Fisher Scientific Inc.) solution was added thereto, and the plate was shaken at room temperature for 1 hour. After washing with T-PBS, color was developed by an o-phenylenediamine (Sigma-Aldrich Inc.) solution (the reaction was terminated by the addition of 4 mol/L sulfuric acid), and the absorbance was measured (490 nm, Reference: 595 nm). The IC50 value was calculated using XLfit 3.0 (ID Business Solutions Ltd.). RGDfV (Bachem AG) was measured in duplicate as a QC sample for each plate.

A further data set addresses T2, Integrin αvβ5 (Homo sapiens, UniProt P06756+P18084).
T2 construct: purchased Chemicon International, Inc
Kind of data set: Integrin αvβ5 binding affinity test. On the procedure: as §1, with “αvβ5” for “αvβ3”, “PBST (10 mM Na2HPO4 pH 7.5, 150 mM NaCl, and 0.01%” for “T-PBS (PBS containing 0.05%”, “PBST,” for “T-PBS,”

Where [2] appears, read: inhibition of biotinylated vitronectin binding to immobilized αvβ3, read-out: IC50 value αv β3.
Where [3] appears, read: inhibition of biotinylated vitronectin binding to immobilized αvβ5, read-out: IC50 value αvβ5.

T2 sequence (P06756 31-889 limits assumed): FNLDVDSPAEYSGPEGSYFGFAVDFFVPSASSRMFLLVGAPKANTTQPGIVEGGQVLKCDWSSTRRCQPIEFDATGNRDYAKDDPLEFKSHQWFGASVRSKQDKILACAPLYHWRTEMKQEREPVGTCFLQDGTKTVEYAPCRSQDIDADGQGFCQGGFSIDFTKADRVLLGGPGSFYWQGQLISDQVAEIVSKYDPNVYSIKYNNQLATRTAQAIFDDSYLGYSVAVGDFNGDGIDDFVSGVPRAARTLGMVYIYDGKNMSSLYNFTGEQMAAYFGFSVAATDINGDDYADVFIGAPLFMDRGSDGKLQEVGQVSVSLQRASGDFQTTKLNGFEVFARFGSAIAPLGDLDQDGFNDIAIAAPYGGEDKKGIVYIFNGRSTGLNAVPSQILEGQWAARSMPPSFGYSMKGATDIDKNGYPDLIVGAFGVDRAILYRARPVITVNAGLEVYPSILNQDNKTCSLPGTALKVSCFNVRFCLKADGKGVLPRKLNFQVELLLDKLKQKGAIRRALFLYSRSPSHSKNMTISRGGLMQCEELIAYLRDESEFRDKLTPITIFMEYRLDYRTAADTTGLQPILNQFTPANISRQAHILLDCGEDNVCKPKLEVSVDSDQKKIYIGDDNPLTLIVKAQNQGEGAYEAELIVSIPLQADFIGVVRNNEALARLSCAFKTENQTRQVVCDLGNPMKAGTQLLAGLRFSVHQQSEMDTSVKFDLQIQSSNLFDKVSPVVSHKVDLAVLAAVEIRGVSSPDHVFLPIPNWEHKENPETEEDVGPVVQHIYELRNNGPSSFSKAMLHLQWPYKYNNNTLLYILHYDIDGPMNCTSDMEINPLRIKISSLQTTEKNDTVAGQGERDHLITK
T2 sequence (P06756 891-1048 partner limits assumed): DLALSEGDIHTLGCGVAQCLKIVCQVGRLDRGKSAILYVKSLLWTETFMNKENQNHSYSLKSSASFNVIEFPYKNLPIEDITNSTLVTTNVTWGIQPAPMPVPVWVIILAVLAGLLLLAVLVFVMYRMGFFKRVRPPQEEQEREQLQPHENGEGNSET
T2 sequence (P18084 24-799): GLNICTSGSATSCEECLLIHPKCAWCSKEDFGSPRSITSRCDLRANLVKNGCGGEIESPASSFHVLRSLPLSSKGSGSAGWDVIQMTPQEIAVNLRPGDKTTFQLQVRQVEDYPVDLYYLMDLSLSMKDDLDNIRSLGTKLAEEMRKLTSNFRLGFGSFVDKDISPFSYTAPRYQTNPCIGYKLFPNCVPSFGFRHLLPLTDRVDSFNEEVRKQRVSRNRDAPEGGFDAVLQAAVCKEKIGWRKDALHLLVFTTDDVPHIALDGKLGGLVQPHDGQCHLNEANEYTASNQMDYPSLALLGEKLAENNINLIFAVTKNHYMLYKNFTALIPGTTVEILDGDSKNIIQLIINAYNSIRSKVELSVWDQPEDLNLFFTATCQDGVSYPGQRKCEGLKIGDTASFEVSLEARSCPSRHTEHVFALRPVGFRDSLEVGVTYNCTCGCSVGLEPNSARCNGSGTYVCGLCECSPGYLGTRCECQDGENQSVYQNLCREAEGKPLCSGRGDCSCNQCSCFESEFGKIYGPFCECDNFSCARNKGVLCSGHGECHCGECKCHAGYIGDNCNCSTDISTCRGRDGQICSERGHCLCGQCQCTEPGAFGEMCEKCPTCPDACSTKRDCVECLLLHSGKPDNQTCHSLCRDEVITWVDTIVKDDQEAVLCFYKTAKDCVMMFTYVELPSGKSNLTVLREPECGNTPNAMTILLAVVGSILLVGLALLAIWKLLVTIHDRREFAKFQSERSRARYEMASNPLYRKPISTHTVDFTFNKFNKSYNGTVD
T1 sequence (P06756 31-889 limits assumed): as the sequence (P06756 31-889 limits assumed) above
T1 sequence (P06756 891-1048 partner limits assumed): as the sequence (P06756 891-1048 partner limits assumed) above
T1 sequence (P05106 27-788): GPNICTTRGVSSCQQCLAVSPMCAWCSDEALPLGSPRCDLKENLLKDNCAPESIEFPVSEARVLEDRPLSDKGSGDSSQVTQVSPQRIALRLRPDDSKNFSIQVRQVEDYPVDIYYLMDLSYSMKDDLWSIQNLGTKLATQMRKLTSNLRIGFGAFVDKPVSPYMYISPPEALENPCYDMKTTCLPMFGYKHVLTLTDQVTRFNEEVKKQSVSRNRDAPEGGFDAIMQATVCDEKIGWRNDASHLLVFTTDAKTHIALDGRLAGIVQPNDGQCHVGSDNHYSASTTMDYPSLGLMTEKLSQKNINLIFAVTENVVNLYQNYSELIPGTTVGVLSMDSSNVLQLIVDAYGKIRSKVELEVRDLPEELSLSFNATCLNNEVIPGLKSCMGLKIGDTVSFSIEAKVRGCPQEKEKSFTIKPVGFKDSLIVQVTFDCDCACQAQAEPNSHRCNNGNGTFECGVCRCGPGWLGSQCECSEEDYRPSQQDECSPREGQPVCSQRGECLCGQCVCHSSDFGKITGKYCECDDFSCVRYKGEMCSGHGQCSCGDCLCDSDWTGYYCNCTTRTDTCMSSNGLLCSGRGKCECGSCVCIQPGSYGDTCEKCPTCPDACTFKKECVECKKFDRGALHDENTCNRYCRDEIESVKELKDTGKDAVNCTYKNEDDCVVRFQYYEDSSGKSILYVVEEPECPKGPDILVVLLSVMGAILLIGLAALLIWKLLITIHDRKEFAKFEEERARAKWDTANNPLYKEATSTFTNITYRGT

With `Cc1cc(OCCCC(=O)NCCNC(=O)[C@H](CS(=O)(=O)O)NC(=O)[C@H](CS(=O)(=O)O)NC(=O)CN2CCN(CC(=O)[O-])CCN(CC(=O)[O-])CCN(CC(=O)[O-])CC2)cc(C)c1S(=O)(=O)N[C@@H](CNC(=O)c1ccc(CCc2ccc3c(n2)NCCC3)s1)C(=O)O.[111In+3]` [[^111In]-(X9)], the “Concentration of radioactivity in tumor” value in data set [1] (4 hours later) and in data set [1] (24 hours later) was 8.54 % ID/g in each case.
As for `Cc1cc(OCCCC(=O)NCCNC(=O)COCCOCCNC(=O)COCCOCCNC(=O)CN2CCN(CC(=O)O)CCN(CC(=O)O)CCN(CC(=O)O)CC2)cc(C)c1S(=O)(=O)N[C@@H](CNC(=O)c1ccc(CCc2ccc3c(n2)NCCC3)cc1)C(=O)O` [Compound F3, (S)-2,2′,2″-(10-(28-(4-(N-(1-carboxy-2-(4-(2-(5,6,7,8-tetrahydro-1,8-naphthyridin-2-yl)ethyl)benzamido)ethyl)sulfamoyl)-3,5-dimethylphenoxy)-2,11,20,25-tetraoxo-6,9,15,18-tetraoxa-3,12,21,24-tetraazaoctacosyl)-1,4,7,10-tetraazacyclododecane-1,4,7-triyl)triacetic acid], the IC50 on Integrin αvβ3 (setting [2]) and at Integrin αvβ5 (setting [3]) was less than 1 nM each time.
With `Cc1cc(OCCCC(=O)NCCNC(=O)C(CS(=O)(=O)O)NC(=O)CN2CCN3CCN4CCN(CC2)CC(=O)[O][Y]([O]C(=O)C3)[O]C(=O)C4)cc(C)c1S(=O)(=O)NC(CNC(=O)CCCCc1ccc2c(n1)NCCC2)C(=O)O` (centres unmarked) [DD], the IC50 at Integrin αvβ3 and at Integrin αvβ5 was less than 1 nM each time.
Turning to `O=C(O)CC(c1cncc(OCCCC(=O)NCCNC(=O)[C@H](CS(=O)(=O)O)NC(=O)[C@H](CS(=O)(=O)O)NC(=O)CN2CCN(CC(=O)O)CCN(CC(=O)O)CCN(CC(=O)O)CC2)c1)n1ccc2c(CCc3ccc4c(n3)NCCC4)cccc21` (stereo partly drawn) [Compound J9, 2,2′,2″-(10-((4R,7R)-16-((5-(2-carboxy-1-(4-(2-(5,6,7,8-tetrahydro-1,8-naphthyridin-2-yl)ethyl)-1H-indol-1-yl)ethyl)pyridin-3-yl)oxy)-2,5,8,13-tetraoxo-4,7-bis(sulfomethyl)-3,6,9,12-tetraazahexadecyl)-1,4,7,10-tetraazacyclododecane-1,4,7-triyl)triacetic acid], the IC50 on Integrin αvβ3 (setting [2]) was less than 1 nM; at Integrin αvβ5 (setting [3]), 1 to 10 nM.
With `Cc1cc(OCCCC(=O)NCCNC(=O)COCCOCCNC(=O)C(CCCCN)NC(=O)CN2CCN(CC(=O)[O-])CCN(CC(=O)[O-])CCN(CC(=O)[O-])CC2)cc(C)c1S(=O)(=O)NC(CNC(=O)c1ccc(CCc2ccc3c(n2)NCCC3)cc1)C(=O)O.[111In+3]` (centres unmarked) [[^111In]-(E3)], the entries for the “Concentration of radioactivity in tumor” value in data set [1] (4 hours later) and in data set [1] (24 hours later) were 11.00 % ID/g and 12.40 % ID/g, respectively.
For `Cc1cc(OCCCC(=O)NCCNC(=O)[C@H](CS(=O)(=O)O)NC(=O)CN2CCN(CC(=O)[O-])CCN(CC(=O)[O-])CCN(CC(=O)[O-])CC2)cc(C)c1S(=O)(=O)N[C@@H](CNC(=O)c1ccc(CCc2ccc3c(n2)NCCC3)cc1)C(=O)O.[111In+3]` [[^111In]-(B2)], in that order: 8.58 % ID/g and 11.00 % ID/g.
For `Cc1cc(OCCCC(=O)NCCNC(=O)C(CS(=O)(=O)O)NC(=O)C(CS(=O)(=O)O)NC(=O)CN2CCN(CC(=O)[O-])CCN(CC(=O)[O-])CCN(CC(=O)[O-])CC2)cc(C)c1S(=O)(=O)NC(CNC(=O)c1ccc(CCCNc2ccccn2)cc1)C(=O)O.[111In+3]` (centres unmarked) [[^111In]-(Z8)], in that order: 6.95 % ID/g and 3.34 % ID/g.
For `O=C([O-])CN1CCN(CC(=O)[O-])CCN(CC(=O)NC(CS(=O)(=O)O)C(=O)NC(CS(=O)(=O)O)C(=O)NCCNC(=O)CCCOc2cncc(C(CC(=O)O)n3ccc4cc(OCCc5ccc6c(n5)NCCC6)ccc43)c2)CCN(CC(=O)[O-])CC1.[111In+3]` (mixture of isomers) [[^111In]-(I21)], in that order: 10.60 % ID/g and 9.95 % ID/g.
As for `Cc1cc(OCCCC(=O)NCCNC(=O)C(CS(=O)(=O)O)NC(=O)CCC(NC(=O)CN2CCN(CC(=O)[O-])CCN(CC(=O)[O-])CCN(CC(=O)[O-])CC2)C(=O)NC(CS(=O)(=O)O)C(=O)NCCNC(=O)CCCOc2cc(C)c(S(=O)(=O)NC(CNC(=O)c3ccc(CCc4ccc5c(n4)NCCC5)cc3)C(=O)O)c(C)c2)cc(C)c1S(=O)(=O)NC(CNC(=O)c1ccc(CCc2ccc3c(n2)NCCC3)cc1)C(=O)O.[111In+3]` (centres unmarked) [[^111In]-(H9)], the “Concentration of radioactivity in tumor” value is reported as 9.17 % ID/g in data set [1] (4 hours later) and 8.74 % ID/g in data set [1] (24 hours later).
Regarding `Cc1cc(OCCCC(=O)NCCNC(=O)COCCOCCNC(=O)CN2CCN(CC(=O)[O-])CCN(CC(=O)[O-])CCN(CC(=O)[O-])CC2)cc(C)c1S(=O)(=O)N[C@@H](CNC(=O)c1ccc(CCc2ccc3c(n2)NCCC3)cc1)C(=O)O.[111In+3]` [[^111In]-(D3)], the “Concentration of radioactivity in tumor” value in data set [1] (4 hours later) was found to be 10.50 % ID/g; in data set [1] (24 hours later), 7.73 % ID/g.
With `Cc1cc(OCCCC(=O)NCCNC(=O)COCCOCCNC(=O)COCCOCCNC(=O)CN2CCN(CC(=O)[O-])CCN(CC(=O)[O-])CCN(CC(=O)[O-])CC2)cc(C)c1S(=O)(=O)N[C@@H](CNC(=O)c1ccc(CCc2ccc3c(n2)NCCC3)cc1)C(=O)O.[111In+3]` [[^111In]-(F3)], the “Concentration of radioactivity in tumor” value in data set [1] (4 hours later) is 11.80 % ID/g; in data set [1] (24 hours later), 8.41 % ID/g.
For `Cc1cc(OCCCC(=O)NCCNC(=O)C(CS(=O)(=O)O)NC(=O)C(CS(=O)(=O)O)NC(=O)CN2CCN(CC(=O)[O-])CCN(CC(=O)[O-])CCN(CC(=O)[O-])CC2)cc(C)c1S(=O)(=O)NC(CNC(=O)CCCCc1ccc2c(n1)NCCC2)C(=O)O.[111In+3]` (centres unmarked) [[^111In]-(O10)] the same measures were 12.80 % ID/g and 12.40 % ID/g.
For `Cc1cc(OCCCC(=O)NCCNC(=O)[C@H](CS(=O)(=O)O)NC(=O)[C@H](CS(=O)(=O)O)NC(=O)CN2CCN(CC(=O)[O-])CCN(CC(=O)[O-])CCN(CC(=O)[O-])CC2)cc(C)c1S(=O)(=O)N[C@@H](CNC(=O)c1ccc(CCc2cccc(N)n2)cc1)C(=O)O.[111In+3]` [[^111In]-(N3)] the same measures were 9.75 % ID/g and 5.93 % ID/g.
For `Cc1cc(OCCCC(=O)NCCNC(=O)COCCOCCNC(=O)[C@H](CS(=O)(=O)O)NC(=O)CN2CCN(CC(=O)[O-])CCN(CC(=O)[O-])CCN(CC(=O)[O-])CC2)cc(C)c1S(=O)(=O)N[C@@H](CNC(=O)c1ccc(CCc2ccc3c(n2)NCCC3)cc1)C(=O)O.[111In+3]` [[^111In]-(G3)], in that order: 10.50 % ID/g and 9.82 % ID/g.
As to `O=C(O)C[C@H](NC(=O)c1ccc(CCc2ccc3c(n2)NCCC3)cc1)c1ccc(OCCCC(=O)NCCNC(=O)[C@H](CS(=O)(=O)O)NC(=O)[C@H](CS(=O)(=O)O)NC(=O)CN2CCN(CC(=O)O)CCN(CC(=O)O)CCN(CC(=O)O)CC2)c(F)c1` [Compound Q12, 2,2′,2″-(10-((4R,7R)-16-(4-((S)-2-carboxy-1-(4-(2-(5,6,7,8-tetrahydro-1,8-naphthyridin-2-yl)ethyl)benzamido)ethyl)-2-fluorophenoxy)-2,5,8,13-tetraoxo-4,7-bis(sulfomethyl)-3,6,9,12-tetraazahexadecyl)-1,4,7,10-tetraazacyclododecane-1,4,7-triyl)triacetic acid], the IC50 at Integrin αvβ3 (setting [2]) was less than 1 nM.

For the origin of these results see patent US11426473B2, “Nitrogen-containing compound or salt thereof, or metal complex thereof” (FUJIFILM Corporation, priority 2013, dated 2022).
